The subject of one assay is A375-NRAS^Q61K cells. Nature of the assay: CTGlo Cell Viability Assay, A375-NRAS^Q61K (A375.11) cells, 96 hours. The settings on record: Homo sapiens, 96 h, A375.11 (A375-NRAS^Q61K) cells; for Emax: lowest % viability achieved. The format is cell-based, human. In outline:
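A375 cells carrying BRAF V600E and NRAS Q61K were seeded at 250 cells/well with a 10-point half-log dose series (max 10 μM final). After 96 h at 37 °C, viability was read as ATP luminescence (CellTiter-Glo), background-subtracted and normalized to DMSO (100%). GI50 from 4-parameter fit; Emax is the lowest % viability.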

Assay [1] deals with T1, human bile salt export pump (BSEP) efflux transporter (Homo sapiens, UniProt O95342).
T1 construct: purchased SOLVO Biotechnology Charles River Laboratories, Szeged, Hungary; host or cells: HEK293 (inside out membrane vesicles)
As to the kind of experiment: BSEP Vesicular Transport Inhibition Assay (IC50 determination). The format is biochemical. To be noted: human BSEP (HEK293) vesicles; taurocholate 0.2 μM; 4 mM Mg-ATP; 10 concentrations, 1 replicate; in nM. In outline: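 Inside-out membrane vesicles from HEK293 cells expressing human BSEP were incubated with taurocholate probe substrate and compound (10 concentrations, single replicate) with 4 mM Mg-ATP, or 4 mM AMP for background, for 5 min at 37 °C. Vesicle-trapped substrate was quantified by liquid scintillation counting after filtration.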

For orientation: GI50 means the concentration that inhibits growth by half. The low end stands for more potent growth inhibition, the high end for less potent growth inhibition.

T1 sequence (O95342 whole entry): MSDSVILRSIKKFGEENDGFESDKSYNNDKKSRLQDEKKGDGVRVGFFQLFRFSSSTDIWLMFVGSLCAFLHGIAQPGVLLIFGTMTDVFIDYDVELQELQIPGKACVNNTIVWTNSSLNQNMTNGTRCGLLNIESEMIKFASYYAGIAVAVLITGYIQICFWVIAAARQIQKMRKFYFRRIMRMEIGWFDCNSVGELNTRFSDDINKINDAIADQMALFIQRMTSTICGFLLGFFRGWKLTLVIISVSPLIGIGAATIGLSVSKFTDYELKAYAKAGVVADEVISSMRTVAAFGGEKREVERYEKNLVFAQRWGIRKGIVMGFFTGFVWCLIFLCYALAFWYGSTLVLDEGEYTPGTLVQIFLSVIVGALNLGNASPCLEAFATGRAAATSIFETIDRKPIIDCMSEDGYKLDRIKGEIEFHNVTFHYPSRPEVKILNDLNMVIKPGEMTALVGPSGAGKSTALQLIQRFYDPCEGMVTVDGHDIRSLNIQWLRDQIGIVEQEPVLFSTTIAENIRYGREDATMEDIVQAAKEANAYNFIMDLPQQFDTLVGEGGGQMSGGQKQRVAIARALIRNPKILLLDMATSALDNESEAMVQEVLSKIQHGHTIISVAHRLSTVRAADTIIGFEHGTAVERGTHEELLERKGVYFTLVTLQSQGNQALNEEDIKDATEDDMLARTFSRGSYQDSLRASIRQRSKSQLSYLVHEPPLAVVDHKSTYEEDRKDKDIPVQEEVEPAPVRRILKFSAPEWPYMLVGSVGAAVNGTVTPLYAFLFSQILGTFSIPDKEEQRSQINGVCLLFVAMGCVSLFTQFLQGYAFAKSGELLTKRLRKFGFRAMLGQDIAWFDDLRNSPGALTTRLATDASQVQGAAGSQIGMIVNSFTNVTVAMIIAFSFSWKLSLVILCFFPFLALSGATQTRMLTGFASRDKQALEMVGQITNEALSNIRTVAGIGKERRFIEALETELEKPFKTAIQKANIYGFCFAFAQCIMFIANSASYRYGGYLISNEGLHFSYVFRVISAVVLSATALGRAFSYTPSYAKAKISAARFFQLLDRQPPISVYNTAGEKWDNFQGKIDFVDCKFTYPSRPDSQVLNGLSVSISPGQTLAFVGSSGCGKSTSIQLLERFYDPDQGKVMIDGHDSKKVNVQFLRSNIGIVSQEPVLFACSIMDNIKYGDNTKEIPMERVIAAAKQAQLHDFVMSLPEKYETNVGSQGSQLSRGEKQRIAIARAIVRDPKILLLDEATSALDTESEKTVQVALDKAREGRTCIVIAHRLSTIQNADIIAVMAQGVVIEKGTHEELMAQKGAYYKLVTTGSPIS

In the assay on A375-NRAS^Q61K cells, `Cn1nc(N2CCC(=O)NC2=O)c2cc(F)c(N3CC4(CC(N5CCC6(CC5)CC(n5cnc7ccc(Oc8c(F)ccc(NS(=O)(=O)C9CCC9)c8C#N)cc7c5=O)C6)C4)C3)cc21` [Compound 259, N-[2-cyano-3-[3-[7-[2-[3-(2,4-dioxohexahydropyrimidin-1-yl)-5-fluoro-1-methyl-indazol-6-yl]-2-azaspiro[3.3]heptan-6-yl]-7-azaspiro[3.5]nonan-2-yl]-4-oxo-quinazolin-6-yl]oxy-4-fluoro-phenyl]cyclobutanesulfonamide] had a GI50 below 1 µM and an Emax below 50%. The “BSEP Inhibition/IC50” value in assay [1] was found to be 12760.

In the assay with A375-NRAS^Q61K cells, `Cn1nc(N2CCC(=O)NC2=O)c2cc(F)c(N3CC4(CC(N5CCC6(CC5)CC(n5cnc7ccc(Oc8c(F)ccc(NS(=O)(=O)C9CC9)c8C#N)cc7c5=O)C6)C4)C3)cc21` [Compound 260, N-[2-cyano-3-[3-[7-[2-[3-(2,4-dioxohexahydropyrimidin-1-yl)-5-fluoro-1-methyl-indazol-6-yl]-2-azaspiro[3.3]heptan-6-yl]-7-azaspiro[3.5]nonan-2-yl]-4-oxo-quinazolin-6-yl]oxy-4-fluoro-phenyl]cyclopropanesulfonamide] came in with a GI50 below 1 µM and an Emax of 50 to 90%. The “BSEP Inhibition/IC50” value in assay [1] is 12720.

Regarding `Cn1nc(N2CCC(=O)NC2=O)c2cc(F)c(N3CC4(CC(N5CCC6(CC5)CC(n5cnc7ccc(Oc8c(F)ccc(NS(=O)(=O)N9CC[C@@H](F)C9)c8C#N)cc7c5=O)C6)C4)C3)cc21` [Compound 261, (3R)-N-[2-cyano-3-[3-[7-[2-[3-(2,4-dioxohexahydropyrimidin-1-yl)-5-fluoro-1-methyl-indazol-6-yl]-2-azaspiro[3.3]heptan-6-yl]-7-azaspiro[3.5]nonan-2-yl]-4-oxo-quinazolin-6-yl]oxy-4-fluoro-phenyl]-3-fluoro-pyrrolidine-1-sulfonamide], in the assay with A375-NRAS^Q61K cells, the 50% growth inhibitory concentration (GI50) was below 1 µM and the Emax was below 50%. Besides, in assay [1], the “BSEP Inhibition/IC50” value is above 40000.

In the assay on A375-NRAS^Q61K cells, `CC(C)S(=O)(=O)Nc1ccc(F)c(Oc2ccc3ncn(C4CC5(CCN(C6CC7(C6)CN(c6cc8c(cc6F)c(N6CCC(=O)NC6=O)nn8C)C7)CC5)C4)c(=O)c3c2)c1C#N` (stereo not drawn) [Compound 273, N-[2-cyano-3-[3-[7-[2-[3-(2,4-dioxohexahydropyrimidin-1-yl)-5-fluoro-1-methyl-indazol-6-yl]-2-azaspiro[3.3]heptan-6-yl]-7-azaspiro[3.5]nonan-2-yl]-4-oxo-quinazolin-6-yl]oxy-4-fluoro-phenyl]propane-2-sulfonamide] had a concentration for 50% growth inhibition (GI50) below 1 µM and an Emax below 50%. Besides, in assay [1], the “BSEP Inhibition/IC50” value was 20580.

With `Cn1nc(N2CCC(=O)NC2=O)c2cc(F)c(N3CC4(CC(N5CCC6(CC5)CC(n5cnc7ccc(Oc8c(F)ccc(NS(=O)(=O)N9C[C@H]%10C[C@H]%10C9)c8C#N)cc7c5=O)C6)C4)C3)cc21` (stereo partly drawn) [Compound 277, (1R,5S)-N-[2-cyano-3-[3-[7-[2-[3-(2,4-dioxohexahydropyrimidin-1-yl)-5-fluoro-1-methyl-indazol-6-yl]-2-azaspiro[3.3]heptan-6-yl]-7-azaspiro[3.5]nonan-2-yl]-4-oxo-quinazolin-6-yl]oxy-4-fluoro-phenyl]-3-azabicyclo[3.1.0]hexane-3-sulfonamide], in the assay with A375-NRAS^Q61K cells, the concentration for 50% growth inhibition (GI50) is below 1 µM and the Emax was 50 to 90%. Also, the “BSEP Inhibition/IC50” value in assay [1] came to 11860.

The record behind these values is patent publication US20260297060A1, “COMPOUNDS FOR THE DEGRADATION OF MUTANT BRAF” (C4 THERAPEUTICS, INC., priority 2023, published 2026).
